Assay results published in US20100081668A1, “POLYMORPHS OF 5--6-CHLORO-1,3-DIHYDRO-2H-INDOL-2-ONE HYDROBROMIDE AND PROCESSES FOR PREPARATION THEREOF” (priority 2006, published 2010).
Structures can show the parent of a compound that is named as a salt. Where two headings read alike, the source gives them in different places. Blank lines part the entries; values can stand above or below the compound they belong to.

Assays:
[1] = Exposure of samples to 100% relative humidity at room temperature; type: physicochemical
Description: The Ziprasidone-hydrobromide Form III (hemihydrate) sample was also stable in these circumstances.

[2] = Thermogravimetric (TG) and differential scanning calorimetric (DSC) investigation during heating; type: physicochemical
Description: The Ziprasidone-hydrobromide Form III (hemihydrate) sample was also stable in these circumstances. Thermogravimetry (TG) Parameters: [table] Differential Scanning Calorimetry (DSC) Parameters: [table]

[3] = Stability and water uptake from air at normal humidity; type: physicochemical; details: normal circumstances
Description: During our experimental work we prepared different ziprasidone hydrobromide compounds and forms. […] In suitable circumstances both the anhydrate and the monohydrate of ziprasidone hydrobromide can be prepared in stable forms, at normal humidity these products can easily be handled, meanwhile their water and active ingredient contents remain constant. The hemihydrate of ziprasidone hydrobromide can also be prepared reproducibly.
1.69 g crystalline 5-{2-[4-(1,2-benzisothiazol-3-yl)-1-piperazinyl]-ethyl}-6-chloro-1,3-dihydro-2H-indol-2-one-hydrobromide anhydrate (ziprasidone-hydrobromide anhydrate) in a form of Ziprasidone-hydrobromide Form II was obtained.

[4] = 31% relative humidity, after 4 hours; starting water content 0.19%; cited from earlier work

stability / change of water content in 100% relative humidity area ([1]; hemihydrate): stable
Structure (SMILES): O=C1Cc2cc(CCN3CCN(c4nsc5ccccc45)CC3)c(Cl)cc2N1 [Ziprasidone-hydrobromide Form III, 5-{2-[4-(1,2-benzisothiazol-3-yl)-1-piperazinyl]-ethyl}-6-chloro-1,3-dihydro-2H-indol-2-one-hydrobromide hemihydrate]

stability / change of water content in 100% relative humidity area ([1]; monohydrate): does not change significantly
temperature at which water is lost during heating ([2]; TG and DSC, during heating): 40-60 °C
re-uptake of water after the heat-effect ([2]; after heating, transforms back to monohydrate of the original crystal structure): readily takes back the water
Structure (SMILES): O=C1Cc2cc(CCN3CCN(c4nsc5ccccc45)CC3)c(Cl)cc2N1 [Ziprasidone-hydrobromide Form I, 5-{2-[4-(1,2-benzisothiazol-3-yl)-1-piperazinyl]-ethyl}-6-chloro-1,3-dihydro-2H-indol-2-one-hydrobromide monohydrate]

stability / change of water content in 100% relative humidity area [1]: does not change significantly
water absorption from air [3]: does not absorb water from the air
Structure (SMILES): O=C1Cc2cc(CCN3CCN(c4nsc5ccccc45)CC3)c(Cl)cc2N1 [Ziprasidone-hydrobromide Form II, 5-{2-[4-(1,2-benzisothiazol-3-yl)-1-piperazinyl]-ethyl}-6-chloro-1,3-dihydro-2H-indol-2-one-hydrobromide anhydrate]

water absorption from air [3]: adsorbed water rapidly from air
Structure (SMILES): Cl.O=C1Cc2cc(CCN3CCN(c4nsc5ccccc45)CC3)c(Cl)cc2N1 [ziprasidone hydrochloride anhydrate, reference compound]
water content after exposure to humid air [4]: 2.55%
